This is an account of results in patent US11578343B2, “CAS9 proteins including ligand-dependent inteins” (President and Fellows of Harvard College, priority 2014, dated 2023).

Holding throughout (format): cell-based, human
One data set relates to genomic EGFP locus. Description: Genomic EGFP disruption in HEK293-GFP stable cells (loss of GFP by flow cytometry). The following applies: for Loss of GFP expression / nuclease activity, in words: with or without 1 μM 4-HT, FIG. 3c. As for the experimental part:
HEK293-GFP stable cells were transfected with the Cas9 expression plasmid, a gRNA (targeting Emerald GFP; Guilinger et al., Nature Biotechnology (2014)), and iRFP670 (transfection control), using Lipofectamine 2000. Twelve hours after transfection, media, either containing 4-HT (1 μM) or without 4-HT, was added.
Five days after transfection, cells were trypsinized and analyzed on a flow cytometer. Cells lacking GFP indicated genome modification. Cas9 variants that induced minimal genome modification in the absence of 4-HT but induce significant genome modification in the presence of 4-HT were deemed small-molecule-regulated variants in this Example.
Additionally, a time course was performed in which incubation with 4-HT was limited to 2, 4, 8, 12 or 24 hours, after which point the media was replaced.
We genetically inserted the 4-HT-dependent intein at each of fifteen positions in Cas9 (Cys80, Ala127, Thr146, Ser219, Thr333, Thr519, Cys574, Thr622, Ser701, Ala728, Thr995, Ser1006, Ser1154, Ser1159, and Ser1274), chosen to distribute the location of the intein across the structural domains of Cas9^23 (FIG. 3b and Example 1). Because intein splicing leaves behind a single Cys residue, the intein was inserted in place of one Cas9 amino acid in each of the 15 candidate constructs. In addition to replacing natural Cys amino acids, we also favored replacing Ala, Ser, or Thr residues to minimize the likelihood that the resulting Cys point mutation resulting from protein splicing would disrupt Cas9 activity. The 15 intein-Cas9 candidates were expressed in HEK293-GFP cells together with a sgRNA that targets the genomic EGFP locus in these cells. Twelve hours post-transfection, cells were treated with or without 1 μM 4-HT. Five days post-transfection, cells were analyzed on a flow cytometer for loss of GFP expression from Cas9-mediated EGFP cleavage and subsequent non-homologous end joining.
Modification of genomic GFP. HEK293-GFP stable cells (GenTarget), which constitutively express Emerald GFP, served as the reporter cell line. Cells were maintained in “full serum media”: Dulbecco's Modified Eagle's Media plus GlutaMax (Life Technologies) with 10% (vol/vol) FBS and penicillin/streptomycin (1×, Amresco). 5×10^4 cells were plated on 48-well collagen-coated Biocoat plates (Becton Dickinson). 16-18 h after plating, cells were transfected with Lipofectamine 2000 (Life Technologies) according to the manufacturer's protocol. Briefly, 1.5 μL of Lipofectamine 2000 was used to transfect 650 ng of total plasmid: 500 ng Cas9 expression plasmid, 125 ng sgRNA expression plasmid, and 25 ng near-infrared iRFP670 expressing plasmid (Addgene plasmid 45457)^26. 12 h after transfection, the media was replaced with full serum media, with or without 4-HT (1 μM, Sigma-Aldrich T176). The media was replaced again 3-4 days after transfection. Five days after transfection, cells were trypsinized and resuspended in full serum media and analyzed on a C6 flow cytometer (Accuri) with a 488-nm laser excitation and 520-nm filter with a 20-nm band pass. Transfections and flow cytometry measurements were performed in triplicate.

The test system of the next data set is CLTA genomic site. As to the kind of experiment: T7 Endonuclease I Surveyor assay of genomic modification. Particulars: FIG. 2. The protocol: (§1) The presence of two bands corresponding to smaller DNA fragments (the fragments are approximately the same size for EMX) indicates genomic modification.
(§2) 4-HT (1 μM) was added during transfection for +4-HT samples. 12 hours after transfection the media was replaced. 60 hours after transfection, cells were trypsinized and genomic DNA was isolated using the DNAdvance kit (Agencourt). […] PCR products were purified with a QIAquick PCR Purification Kit (Qiagen) and quantified with a Quant-iT PicoGreen dsDNA Kit (Life Technologies). 200 ng of purified PCR DNA was then combined with 2 μL of NEBuffer 2 (NEB) in a total volume of 19 μL and denatured then re-annealed with thermocycling at 95° C. for 5 min, 95-85° C. at 2° C./s, 85-20° C. at 0.2° C./s. The re-annealed DNA was incubated with 1 μL of T7 Endonuclease I (10 U/μL, NEB) at 37° C. for 15 min. 10 μL of 50% glycerol was added to the T7 Endonuclease reaction and 15 μL was analyzed on a 5% TBE 18-well Criterion PAGE gel (Bio-Rad) electrophoresed for 30 min at 200V and stained with EtBr for 15 min.

The subject of the next data set is EMX genomic site. The data set is described as above. Particulars: FIG. 2. As for the experimental part:
as §1, §2

The subject of another data set is VEGF genomic site. The data set is described as above. Particulars: FIG. 2. As for the experimental part: as §1, §2
Setting [1] is: +4-HT 2 hrs, then media replaced, Table 2.
The mark [2] stands for this setting: +4-HT 4 hrs, then media replaced, Table 2.
[3] abbreviates: +4-HT 8 hrs, then media replaced, Table 2.
Setting [4] is: +4-HT 12 hrs, then media replaced, Table 2.
Setting [5] is: +4-HT 24 hrs, then media replaced, Table 2.
The mark [6] stands for this setting: +4-HT (1 μM, added 12 h after transfection), five days after transfection, Table 1.
Setting [7] is: −4-HT, five days after transfection, Table 1.

Regarding “intein(Cys574)-Cas9: Cas9 with 37R3-2 intein replacing Cys574 (SEQ ID NO: 33)”, the “Cells without GFP (%)” value stood at 14.57% with genomic EGFP locus (setting [1]); 13.11% with genomic EGFP locus (setting [2]); 16.91% with genomic EGFP locus (setting [3]); 16.10% in the data set on genomic EGFP locus (setting [4]); 14.52% with genomic EGFP locus (setting [5]); 21.44% in the data set with genomic EGFP locus (setting [6]). Also, the “Cells without GFP (%)” value in the data set with genomic EGFP locus (setting [7]) was 5.74%; in the data set on genomic EGFP locus (−4-HT, time course, Table 2), 2.91%. In the data set on genomic EGFP locus (listed as C574), the “Loss of GFP expression / nuclease activity, in words” value was 4-HT-dependent loss of GFP expression and high activity in the presence of 4-HT and low activity in the absence of 4-HT. Moreover, the “Genomic modification of target site (T7E1 gel)” value is listed as “comparable to modification by wild-type Cas9” in the data set with CLTA genomic site (+4-HT (1 μM)); “some background cleavage” in the data set with CLTA genomic site (absence of 4-HT); “comparable to modification by wild-type Cas9” in the data set with EMX genomic site (+4-HT (1 μM)); “minimal or no modification” in the data set with EMX genomic site (absence of 4-HT); “comparable to modification by wild-type Cas9” with VEGF genomic site (+4-HT (1 μM)); “minimal or no modification” with VEGF genomic site (absence of 4-HT).

With “intein(Ser219)-Cas9: Cas9 with 37R3-2 intein replacing Ser219 (SEQ ID NO: 30)”, the “Cells without GFP (%)” value is 17.25% in the data set with genomic EGFP locus (setting [1]); 17.07% with genomic EGFP locus (setting [2]); 15.12% with genomic EGFP locus (setting [3]); 15.28% in the data set on genomic EGFP locus (setting [4]); 24.39% with genomic EGFP locus (setting [5]); 23.98% with genomic EGFP locus (setting [6]). In addition, the “Cells without GFP (%)” value in the data set with genomic EGFP locus (setting [7]) stood at 6.53%; with genomic EGFP locus (−4-HT, time course, Table 2) it was 3.92%. For the same substance, the “Loss of GFP expression / nuclease activity, in words” value with genomic EGFP locus (listed as 5219) is 4-HT-dependent loss of GFP expression and high activity in the presence of 4-HT and low activity in the absence of 4-HT. Further, the “Genomic modification of target site (T7E1 gel)” value is “comparable to modification by wild-type Cas9” in the data set with CLTA genomic site (+4-HT (1 μM)); “some background cleavage” in the data set with CLTA genomic site (absence of 4-HT); “comparable to modification by wild-type Cas9” with EMX genomic site (+4-HT (1 μM)); “minimal or no modification” with EMX genomic site (absence of 4-HT); “comparable to modification by wild-type Cas9” with VEGF genomic site (+4-HT (1 μM)); “minimal or no modification” with VEGF genomic site (absence of 4-HT).
